Test results taken from patent publication US20240165097A1, “PHARMACEUTICAL COMPOSITION FOR THE TREATMENT OF ALZHEIMER'S DISEASE OR DEMENTIA” (Heptares Therapeutics Limited, priority 2021, published 2024).
Marks after values point to notes of the source that are not given here.

Test system: patients with mild-to-moderate AD
Experiment: Example D: safety and tolerability, adjunctive to donepezil 10 mg per day, 4 weeks
Assay type: in vivo, human
Conditions: for Abdominal pain incidence / Accidental overdose incidence / Decreased lymphocyte count incidence / Decreased white blood cell count incidence / Diarrhoea incidence / Fatigue incidence / Headache incidence / Hyperhidrosis incidence / Lymphopenia incidence / Nausea incidence / Number of TEAEs / SAE incidence / TEAE Severity: Mild / TEAE Severity: Moderate / TEAE Severity: Severe / TEAE incidence / TEAE leading to discontinuation incidence / Treatment-related TEAE incidence / Urinary tract infection incidence / Viral upper respiratory tract infection incidence: randomised dose; for TEAE incidence during maintenance (Days 16-28) / TEAE incidence during titration (Days 1-15): Day 16 dose received
Protocol: The study was an outpatient study conducted across 18 centres in Poland, Czech Republic, Spain, and Slovakia (NCT03456349, registered at clinicaltrials.gov). Patients were assessed for eligibility during a 42-day screening period and randomised equally to either placebo or a HTL0018318 target dose of 5 mg, 15 mg, or 25 mg per day (FIG. 5A). HTL0018318 was titrated to the target dose during a 2-week titration period (FIG. 5B); investigators could maintain or reduce the dose to limit tolerability/safety issues throughout this period. The study was conducted in accordance with the principles of the Declaration of Helsinki, the International Council for Harmonisation good clinical practice guidelines, and according to all appropriate country regulatory requirements. Relevant independent ethics committees provided approval, and all patients (or their caregiver) provided written informed consent.
The primary endpoint of this study was to evaluate the safety and tolerability of HTL0018318. Safety and tolerability were assessed via the incidence and severity of treatment-emergent adverse events (TEAEs), and via evaluation during study visits of vital signs (including blood pressure [BP] and heart rate [HR]), electrocardiogram (ECG) measurements, physical and neurological examinations, laboratory haematology, clinical chemistry and urinalysis.
Safety was the primary endpoint and was assessed at all visits (screening, baseline, Day 1, Day 6±1, Day 11±1, Day 16±1, Day 28±1, and Day 35±2 [follow-up]) based on: spontaneously reported treatment-emergent adverse events (TEAEs); scheduled physical and neurological examinations; vital sign measurements (body temperature, heart rate [HR], systolic and diastolic BP [SBP and DBP]); 12-lead ECG recordings; and clinical laboratory safety panel. The C-SSRS was administered at baseline and on Day 28±1. TEAEs were coded using the Medical Dictionary for Regulatory Activities (MedDRA) Version 20.
All safety analyses used the safety set (SAF; randomised dose). The SAF (randomised dose) included all randomised patients who received at least one dose of the study drug; treatment group assignment was based on the initial randomised dose. All efficacy analyses were considered exploratory and used the full analysis set (FAS). The FAS included all randomised patients with at least one post-baseline efficacy measurement; treatment group assignment was based on the initial randomised dose. All summaries and analyses of PK data used the pharmacokinetic set (PKS). The PKS included all randomised patients with valid PK assessments; treatment group assignment was based on actual dose received.
BP and HR were measured in triplicate, both supine and standing, in the same arm throughout the study. Standing BP and HR were measured after 3 minutes of standing, and supine BP and HR after 5 minutes of lying down. Measurements were repeated if clinically significant or machine/equipment errors occurred. Out-of-range BP or HR measurements were repeated at the investigator's discretion. Any confirmed clinically significant vital sign measurements were recorded as AEs. If the following measurements were obtained, instructions for additional monitoring, or stopping dosing were to be followed: • SBP>170 mmHg; DBP>110 mmHg • SBP or DBP increase >30% from Day 1 pre-dose level.
Statistical evaluation was performed using Statistical analysis software (SAS®, SAS Institute, Cary, NC). Changes from baseline in vital signs were analysed using a mixed model for repeated measures with fixed effects for baseline, treatment, time-point and treatment by time-point interaction. The exploratory PD endpoints were analysed using an analysis of covariance with change from baseline as the dependent variable, and baseline and treatment as covariates. The least square means (LSM) for each dose (and difference from placebo) are presented with the 90% CI, P-value, and ES. […]

[1] = two highest doses (15 and 25 mg)

CCOC(=O)N1C2CCC1CC(N1CCC3(CC1)CNC(=O)C3)C2 (stereo not shown) [HTL0018318, ethyl 3-(3-oxo-2,8-diazaspiro[4.5]dec-8-yl)-8-azabicyclo[3.2.1]octane-8-carboxylate]
Abdominal pain incidence (5 mg (n = 15)): 1 (6.7) n (%) | Accidental overdose incidence (5 mg (n = 15)): 1 (6.7) n (%) | Decreased lymphocyte count incidence (5 mg (n = 15)): 0 n (%) | Decreased white blood cell count incidence (5 mg (n = 15)): 0 n (%) | Diarrhoea incidence (5 mg (n = 15)): 1 (6.7) n (%) | Fatigue incidence (5 mg (n = 15)): 0 n (%) | Headache incidence (5 mg (n = 15)): 1 (6.7) n (%) | Hyperhidrosis incidence (5 mg (n = 15)): 0 n (%) | Lymphopenia incidence (5 mg (n = 15)): 0 n (%) | Nausea incidence (5 mg (n = 15)): 1 (6.7) n (%) | Number of TEAEs (5 mg (n = 15)): 18 n | SAE incidence (5 mg (n = 15)): 0 n (%) | TEAE Severity: Mild (5 mg (n = 15)): 7 (46.7) n (%) | TEAE Severity: Moderate (5 mg (n = 15)): 1 (6.7) n (%) | TEAE Severity: Severe (5 mg (n = 15)): 1 (6.7) n (%) | TEAE incidence (5 mg (n = 15)): 8 (53.3) n (%) | TEAE leading to discontinuation incidence (5 mg (n = 15)): 1 (6.7)^d n (%) | Treatment-related TEAE incidence (5 mg (n = 15)): 4 (26.7) n (%) | Urinary tract infection incidence (5 mg (n = 15)): 1 (6.7) n (%) | Viral upper respiratory tract infection incidence (5 mg (n = 15)): 1 (6.7) n (%) | TEAE incidence during maintenance (Days 16-28) (5 mg (n = 17)): 4 (23.5) n (%) | TEAE incidence during titration (Days 1-15) (5 mg (n = 17)): 8 (47.1) n (%) | TEAE incidence during maintenance (Days 16-28) (10 mg (n = 1)): 0 n (%) | TEAE incidence during titration (Days 1-15) (10 mg (n = 1)): 1 (100) n (%) | Abdominal pain incidence (15 mg (n = 14)): 0 n (%) | Accidental overdose incidence (15 mg (n = 14)): 1 (7.1) n (%) | Decreased lymphocyte count incidence (15 mg (n = 14)): 1 (7.1) n (%) | Decreased white blood cell count incidence (15 mg (n = 14)): 1 (7.1) n (%) | Diarrhoea incidence (15 mg (n = 14)): 0 n (%) | Fatigue incidence (15 mg (n = 14)): 0 n (%) | Headache incidence (15 mg (n = 14)): 3 (21.4) n (%) | Hyperhidrosis incidence (15 mg (n = 14)): 2 (14.3) n (%) | Lymphopenia incidence (15 mg (n = 14)): 1 (7.1) n (%) | Nausea incidence (15 mg (n = 14)): 1 (7.1) n (%) | Number of TEAEs (15 mg (n = 14)): 16 n | SAE incidence (15 mg (n = 14)): 0 n (%) | TEAE Severity: Mild (15 mg (n = 14)): 8 (57.1) n (%) | TEAE Severity: Moderate (15 mg (n = 14)): 1 (7.1) n (%) | TEAE Severity: Severe (15 mg (n = 14)): 0 n (%) | TEAE incidence (15 mg (n = 14)): 8 (57.1) n (%) | TEAE leading to discontinuation incidence (15 mg (n = 14)): 1 (7.1)^e n (%) | Treatment-related TEAE incidence (15 mg (n = 14)): 7 (50.0) n (%) | Urinary tract infection incidence (15 mg (n = 14)): 0 n (%) | Viral upper respiratory tract infection incidence (15 mg (n = 14)): 0 n (%) | TEAE incidence during maintenance (Days 16-28) (15 mg (n = 16)): 2 (12.5) n (%) | TEAE incidence during titration (Days 1-15) (15 mg (n = 16)): 8 (50.0) n (%) | TEAE incidence during maintenance (Days 16-28) (25 mg (n = 11)): 2 (18.2) n (%) | TEAE incidence during titration (Days 1-15) (25 mg (n = 11)): 6 (54.5) n (%) | Abdominal pain incidence (25 mg (n = 16)): 0 n (%) | Accidental overdose incidence (25 mg (n = 16)): 0 n (%) | Decreased lymphocyte count incidence (25 mg (n = 16)): 1 (6.3) n (%) | Decreased white blood cell count incidence (25 mg (n = 16)): 1 (6.3) n (%) | Diarrhoea incidence (25 mg (n = 16)): 1 (6.3) n (%) | Fatigue incidence (25 mg (n = 16)): 2 (12.5) n (%) | Headache incidence (25 mg (n = 16)): 3 (18.8) n (%) | Hyperhidrosis incidence (25 mg (n = 16)): 0 n (%) | Lymphopenia incidence (25 mg (n = 16)): 1 (6.3) n (%) | Nausea incidence (25 mg (n = 16)): 0 n (%) | Number of TEAEs (25 mg (n = 16)): 26 n | SAE incidence (25 mg (n = 16)): 0 n (%) | TEAE Severity: Mild (25 mg (n = 16)): 9 (56.3) n (%) | TEAE Severity: Moderate (25 mg (n = 16)): 4 (25.0) n (%) | TEAE Severity: Severe (25 mg (n = 16)): 0 n (%) | TEAE incidence (25 mg (n = 16)): 11 (68.8) n (%) | TEAE leading to discontinuation incidence (25 mg (n = 16)): 0 n (%) | Treatment-related TEAE incidence (25 mg (n = 16)): 5 (31.3) n (%) | Urinary tract infection incidence (25 mg (n = 16)): 1 (6.3) n (%) | Viral upper respiratory tract infection incidence (25 mg (n = 16)): 1 (6.3) n (%) | serious TEAEs or deaths (5, 15, 25 mg): no serious TEAEs or deaths | tolerability (5-25 mg adjunctive to donepezil): generally well tolerated | orthostatic BP or HR (across doses): no significant changes | physical or neurological examination findings, laboratory abnormalities, risk of suicide (across doses): no clinically significant physical or neurological examination findings, or laboratory abnormalities | maximum mean elevations in SBP and DBP above placebo (all doses, at Tmax, Days 1, 6, 11): 5-10 mmHg | patients who discontinued treatment due to TEAEs (one on 5 mg, one on 15 mg): Two | incidences of cholinergic TEAEs (abdominal pain, diarrhoea, fatigue, nausea) [1]: 0-13% | maximum incidences of cholinergic TEAEs [1]: 7-13%
